Data published in patent publication US20090253709A1 (NATIONAL DEFENSE MEDICAL CENTER, priority 2008, published 2009).
Read-outs that look alike come from different tables or passages of the source.

Key:
hTERT expression = assay: SEAP assay, H1299/PhTERT-driven SEAP system; type: cell-based, human; conditions: Homo sapiens
Source text: The condition of the cells for selecting the telomerase inhibitor must be the cancer cells with telomerase activity. H1299 is a non-small cell lung cancer cell line with telomerase activity. The hTERT communication gene linked behind PhTERT which is located at the fifth chromosome of H1299 cell can be expressed; however, this expression is hard to detect. Therefore, the plasmid having the SEAP communication gene linked behind PhTERT was transfected into H1299 cells. Under the identical condition, after PhTERT was activated, the SEAP communication gene linked behind the plasmid was also activated. This gene could be detected by this analytic method while expressing.
If additionally added reagent can inhibit PhTERT, the linked SEAP communication gene will not be expressed, and the hTERT communication gene linked behind PhTERT at the fifth chromosome will not be expressed. […]
The cellular medium after the cellular incubation was transferred into the eppondorf tube, and the activity of endogeneous alkaline phosphatase was inactivated at 65° C. for 10 minutes. After centrification, the mixture was obtained by mixing 50 μl of the supernatant with the equal volume of the SEAP buffer. The mixture and the substrate (120 mM of p-nitrophenylphosphate) were preheated at 37° C. for 10 minutes respectively, and the mixture and the substrate were mixed at a ratio of 1:10 and reacted at 37° C. The absorbance of visible light at 405 nm was determined at the appropriate time intervals, and the enzymatic activity of SEAP was represented by the speed of the increasing absorbance at 405 nm.
The selection of telomerase inhibitors of the anthraquinone compounds provided in the present invention was performed by the H1299/PhTERT-driven SEAP system. SEAP is the communication gene in this drug selection model. The SEAP inhibition was shown as follows. The quantitative cellular medium obtained after the 24-hour drug-treatment and the identical inactivation was reacted with the quantitative SEAP substrate, and the absorbance at 405 nm was detected for 5 time intervals. Subsequently, the linear slope of absorbance to the measuring time was calculated, and the variance of absorbance at 405 nm per minute was represented and compared with the SEAP-producing result of drug-untreated H1299 cells. In addition, the influence of the cell-treated drug solution to the cellular proliferation and the drug toxicity to the cells were considered, and the cellular growth was evaluated by the MTT assay. The drug-treated cells were analyzed by the SEAP assay and the data analysis of MTT assay at the same time. Both results were compared so as to delete the influence of cell number or the activity to SEAP, and the dose-dependent phenomenon could be anticipated in the range of drug concentration designed by the laboratory.
In the preliminary selection, the highest concentration was 1000 μM, and 10-fold serial dilutions were done. Therefore, the final concentrations for treating cells were 1 μM, 10 μM and 100 μM, and the drug concentrations were repeated for 5 times. Since the chemically-synthetic drugs have colors thereon, the SEAP value of drug-treatment without cells was also determined to be the background value which was deducted while treating with the drugs. The candidate drug for inhibiting telomerase on the hTERT gene expression level was evaluated and anticipated.

telomerase = assay: Telomeric repeat amplification protocol (TRAP); type: biochemical; conditions: compounds at 100, 10 and 1 μM; gel electrophoresis
[1] = NCI-H1299, H1299, compound concentration 1 μM, read-out: SEAP (Inhibition μM ± SD)
[2] = NCI-H1299, H1299, compound concentration 10 μM, read-out: SEAP (Inhibition μM ± SD)
[3] = NCI-H1299, H1299, compound concentration 100 μM, read-out: SEAP (Inhibition μM ± SD)
[4] = NCI-H1299, read-out: SEAP (Inhibition μM ± SD)

| Compound | activity at 1 µM (hTERT expression; [1]) | activity at 10 µM (hTERT expression; [2]) | activity at 100 µM (hTERT expression; [3]) | activity at 1 µM (hTERT expression; [4]) | activity at 10 µM (hTERT expression; [4]) | activity at 100 µM (hTERT expression; [4]) | telomerase inhibition effect in TRAP assay (telomerase) |
| --- | --- | --- | --- | --- | --- | --- | --- |
| O=C(CCN1CCNCC1)Nc1ccc2c(c1)C(=O)c1cc(NC(=O)CCN3CCNCC3)ccc1C2=O [Compound 24, 2,7-Bis[3-(piperazino)propionamido]anthraquinone] | 75 ± 26% | 71 ± 21% | 71 ± 15% |  |  |  |  |
| O=C1c2ccc(NC(=O)C3CCCCC3)cc2C(=O)c2cc(NC(=O)C3CCCCC3)ccc21 [Compound 34, 2,7-Bis(cyclohexanecarbonamido)anthraquinone] | 96 ± 5% | 93 ± 3% | 80 ± 2% |  |  |  |  |
| O=C(CCN1CCCCC1)Nc1ccc2c(c1)C(=O)c1cc(NC(=O)CCN3CCCCC3)ccc1C2=O [Compound 19, 2,7-Bis[3-(piperidino)propionamido]anthraquinone] | 55 ± 23% | 33 ± 8% | 25 ± 10% |  |  |  |  |
| CCCNCCC(=O)Nc1ccc2c(c1)C(=O)c1cc(NC(=O)CCNCCC)ccc1C2=O [Compound 21, 2,7-Bis[3-(propylamino)propionamido]anthraquinone] | 52 ± 13% | 22 ± 14% | 13 ± 15% |  |  |  |  |
| O=C(CCl)Nc1ccc2c(c1)C(=O)c1cc(NC(=O)CCl)ccc1C2=O [Compound 3, 2,7-bis(chloroacetamido)anthraquinone] |  |  |  | 72 ± 3% | 40 ± 1% | 36 ± 1% |  |
| CN1CCN(CC(=O)Nc2ccc3c(c2)C(=O)c2cc(NC(=O)CN4CCN(C)CC4)ccc2C3=O)CC1 [Compound 11, 2,7-Bis[2-(N-methylpiperazino)acetamido]anthraquinone] | 76 ± 21% | 50 ± 11% | 23 ± 9% |  |  |  |  |
| O=C1c2ccc([N+](=O)[O-])cc2C(=O)c2cc([N+](=O)[O-])ccc21 [Compound 1, 2,7-dinitroanthraquinone] | 87 ± 13% | 85 ± 21% | 62 ± 8% |  |  |  |  |
| O=C(Nc1ccc2c(c1)C(=O)c1cc(NC(=O)c3ccccc3)ccc1C2=O)c1ccccc1 [Compound 29, 2,7-Bis(benzoamido)anthraquinone] | 104 ± 10% | 92 ± 11% | 85 ± 19% |  |  |  | telomerase inhibition effect |
| CCC(=O)Nc1ccc2c(c1)C(=O)c1cc(NC(=O)CC)ccc1C2=O [Compound 27, 2,7-Bis(propionamido)anthraquinone] | 90 ± 23% | 95 ± 14% | 85 ± 16% |  |  |  |  |
| CC(C)CNCC(=O)Nc1ccc2c(c1)C(=O)c1cc(NC(=O)CNCC(C)C)ccc1C2=O [Compound 14, 2,7-Bis[2-(isobutylamino)acetamido]anthraquinone] | 73 ± 20% | 38 ± 15% | 26 ± 10% |  |  |  |  |
| CCCCNCC(=O)Nc1ccc2c(c1)C(=O)c1cc(NC(=O)CNCCCC)ccc1C2=O [Compound 5, 2,7-Bis[2-(butylamino)acetamido]anthraquinone] | 77 ± 18% | 26 ± 17% | 20 ± 13% |  |  |  |  |
| CC(C)NCC(=O)Nc1ccc2c(c1)C(=O)c1cc(NC(=O)CNC(C)C)ccc1C2=O [Compound 13, 2,7-Bis[2-(isopropylamino)acetamido]anthraquinone] |  |  |  | 73 ± 31% | 28 ± 18% | 21 ± 16% | telomerase inhibition effect |
| O=C(CCCCl)Nc1ccc2c(c1)C(=O)c1cc(NC(=O)CCCCl)ccc1C2=O [Compound 25, 2,7-Bis(4-chlorobutyramido)anthraquinone] | 88 ± 19% | 86 ± 13% | 78 ± 17% |  |  |  |  |
| CCCC(=O)Nc1ccc2c(c1)C(=O)c1cc(NC(=O)CCC)ccc1C2=O [Compound 28, 2,7-Bis(butyramido)anthraquinone] |  |  |  | 90 ± 8% | 83 ± 6% | 83 ± 4% | telomerase inhibition effect |
| O=C(CCCl)Nc1ccc2c(c1)C(=O)c1cc(NC(=O)CCCl)ccc1C2=O [Compound 15, 2,7-Bis(3-chloropropionamido)anthraquinone] | 94 ± 11% | 94 ± 7% | 87 ± 9% |  |  |  |  |
| Nc1ccc2c(c1)C(=O)c1cc(N)ccc1C2=O [Compound 2, 2,7-Diaminoanthraquinone] | 87 ± 10% | 75 ± 8% | 63 ± 12% |  |  |  |  |
| O=C(CN1CCCC1)Nc1ccc2c(c1)C(=O)c1cc(NC(=O)CN3CCCC3)ccc1C2=O [Compound 6, 2,7-Bis[2-(pyrrolidino)acetamido]anthraquinone] | 88 ± 10% | 48 ± 13% | 30 ± 10% |  |  |  | telomerase inhibition effect |
| O=C(CN1CCNCC1)Nc1ccc2c(c1)C(=O)c1cc(NC(=O)CN3CCNCC3)ccc1C2=O [Compound 12, 2,7-Bis[2-(piperazino)acetamido]anthraquinone] | 89 ± 17% | 72 ± 20% | 60 ± 12% |  |  |  |  |
| CCCCNCCC(=O)Nc1ccc2c(c1)C(=O)c1cc(NC(=O)CCNCCCC)ccc1C2=O [Compound 17, 2,7-Bis[3-(butylamino)propionamido]anthraquinone] | 56 ± 14% | 33 ± 9% | 22 ± 17% |  |  |  |  |
| CN(C)CCC(=O)Nc1ccc2c(c1)C(=O)c1cc(NC(=O)CCN(C)C)ccc1C2=O [Compound 20, 2,7-Bis[3-(dimethylamino)propionamido]anthraquinone] |  |  |  | 5 ± 94% | 13 ± 30% |  | telomerase inhibition effect |
| O=C(CCc1ccccc1)Nc1ccc2c(c1)C(=O)c1cc(NC(=O)CCc3ccccc3)ccc1C2=O [Compound 31, 2,7-Bis(phenylpropionamido)anthraquinone] | 89 ± 23% | 79 ± 8% | 61 ± 13% |  |  |  |  |
| CN1CCN(CCC(=O)Nc2ccc3c(c2)C(=O)c2cc(NC(=O)CCN4CCN(C)CC4)ccc2C3=O)CC1 [Compound 23, 2,7-Bis[3-(N-methylpiperazino)propionamido]anthraquinone] | 75 ± 16% | 52 ± 11% | 21 ± 10% |  |  |  |  |
| CCNCCC(=O)Nc1ccc2c(c1)C(=O)c1cc(NC(=O)CCNCC)ccc1C2=O [Compound 22, 2,7-Bis[3-(ethylamino)propionamido]anthraquinone] |  |  |  | 68 ± 29% | 33 ± 24% | 22 ± 13% |  |
| CCCNCC(=O)Nc1ccc2c(c1)C(=O)c1cc(NC(=O)CNCCC)ccc1C2=O [Compound 9, 2,7-Bis[2-(propylamino)acetamido]anthraquinone] | 73 ± 17% | 44 ± 16% | 24 ± 10% |  |  |  |  |
| CCN(CC)CC(=O)Nc1ccc2c(c1)C(=O)c1cc(NC(=O)CN(CC)CC)ccc1C2=O [Compound 4, 2,7-Bis[2-(diethylamino)acetamido]anthraquinone] | 90 ± 3% | 61 ± 11% | 37 ± 10% |  |  |  |  |
